# According to EP2446893A1 (priority 2010, dated 2012):
# Like-named read-outs stand apart in the source and are kept apart here. Starred links: 1 amine or outer side, 2 acyl side, 3 side chain; linkers in the order of their positions; H or OH if unused. Non-standard residues stand in square brackets, D forms with d. Residues, ends and D or L forms follow the SMILES beside them. No end group written: not given here. ξ: configuration not given here. X1 = O=C(C(Cc1ccc(O)cc1)N=CC(Cc1ccc(O)cc1)N[*:1])[*:2]; Pro(4S-Me) = C[C@@H]1CN[C@H](C(=O)O)C1; d(hSer) = N[C@H](CCO)C(=O)O; ξY = NC(Cc1ccc(O)cc1)C(=O)O
# Legend:
# [1] = test system: primary rat hepatocytes; format: cell-based; conditions: hepatocytes incubated for 96 hours
# Procedure: (§1) Rat hepatocytes were isolated by in vitro collagenase perfusion, Mellgren G, et al., Journal of Cellular Physiology 1995;163:232-240. Experimental conditions were as described in Herfindal L, et al., J Med Chem 2009;52:5758-5762, except for assay of NaN3 and general cytotoxicity, where the hepatocytes were seeded in collage-coated 24-well culture dishes. Microinjection of hepatocytes was as described previously, Fladmark KE, et al., Hepatology 1997;25:847-855. The hepatocyte death (by apoptosis or necrosis) was evaluated by microscopy. Long-term hepatocyte viability was assessed also by the WST-1 colorimetric assay of mitochondrial dehydrogenase activity (Roche Applied Sciences, Mannheim, Germany).
# [2] = molecular target: T1, OATP1B3 (Homo sapiens, UniProt Q9NPD5)
# T1 sequence (Q9NPD5 whole entry): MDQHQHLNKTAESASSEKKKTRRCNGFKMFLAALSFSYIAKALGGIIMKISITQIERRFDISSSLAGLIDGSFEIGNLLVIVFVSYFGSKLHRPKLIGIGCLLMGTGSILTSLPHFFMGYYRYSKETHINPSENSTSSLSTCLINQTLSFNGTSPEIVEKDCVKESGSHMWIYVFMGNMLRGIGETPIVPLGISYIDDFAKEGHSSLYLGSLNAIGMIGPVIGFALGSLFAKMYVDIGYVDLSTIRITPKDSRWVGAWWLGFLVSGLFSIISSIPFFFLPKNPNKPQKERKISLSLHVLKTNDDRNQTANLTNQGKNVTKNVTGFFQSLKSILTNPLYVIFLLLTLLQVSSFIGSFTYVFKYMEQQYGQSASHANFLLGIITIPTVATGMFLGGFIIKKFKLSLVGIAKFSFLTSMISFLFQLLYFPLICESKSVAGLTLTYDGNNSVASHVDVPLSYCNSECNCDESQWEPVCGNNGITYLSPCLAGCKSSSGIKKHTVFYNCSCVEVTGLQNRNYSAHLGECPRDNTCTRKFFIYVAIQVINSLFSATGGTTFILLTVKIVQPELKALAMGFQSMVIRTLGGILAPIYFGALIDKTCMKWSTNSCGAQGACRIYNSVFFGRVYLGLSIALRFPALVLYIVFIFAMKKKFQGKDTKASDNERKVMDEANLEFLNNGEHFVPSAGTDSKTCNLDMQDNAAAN
# [3] = test system: primary rat hepatocytes; experiment: hepatocyte toxicity / long-term viability (microscopy, WST-1); format: cell-based; conditions: for inherent toxicity (morphology, growth, mitochondrial dehydrogenase activity of hepatocytes): hepatocytes incubated for 96 hours; for toxicity for primary rat hepatocytes: not shown
# Procedure: as §1
# [4] = test system: primary rat hepatocytes
# [5] = molecular target: T2, Oatp1b2 (Rattus norvegicus, UniProt Q9QZX8)
# T2 sequence (Q9QZX8 1-687): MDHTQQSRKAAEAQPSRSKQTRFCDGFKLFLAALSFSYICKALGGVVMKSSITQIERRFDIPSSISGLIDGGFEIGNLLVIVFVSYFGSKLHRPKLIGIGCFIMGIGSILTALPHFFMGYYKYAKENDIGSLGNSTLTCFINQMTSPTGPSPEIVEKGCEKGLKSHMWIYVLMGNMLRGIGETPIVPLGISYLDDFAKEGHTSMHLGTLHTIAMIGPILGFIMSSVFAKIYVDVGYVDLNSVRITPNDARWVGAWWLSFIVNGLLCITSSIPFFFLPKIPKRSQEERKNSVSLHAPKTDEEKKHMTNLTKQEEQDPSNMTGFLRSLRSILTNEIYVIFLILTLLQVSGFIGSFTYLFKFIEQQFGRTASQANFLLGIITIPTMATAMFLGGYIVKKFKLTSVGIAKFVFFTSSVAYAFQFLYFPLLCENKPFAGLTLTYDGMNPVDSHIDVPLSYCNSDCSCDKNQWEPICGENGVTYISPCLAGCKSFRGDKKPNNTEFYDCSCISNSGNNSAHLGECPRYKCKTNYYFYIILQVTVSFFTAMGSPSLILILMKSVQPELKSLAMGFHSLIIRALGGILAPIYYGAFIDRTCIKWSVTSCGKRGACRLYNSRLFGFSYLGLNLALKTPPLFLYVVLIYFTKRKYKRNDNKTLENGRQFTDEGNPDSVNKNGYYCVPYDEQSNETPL
# [6] = solubility in physiological saline; format: physicochemical
# [7] = test system: CaM-KII; format: biochemical
# [8] = molecular target: T3, OATP1B1 (Homo sapiens, UniProt Q9Y6L6)
# Target sequence in this assay (Q9Y6L6 whole entry): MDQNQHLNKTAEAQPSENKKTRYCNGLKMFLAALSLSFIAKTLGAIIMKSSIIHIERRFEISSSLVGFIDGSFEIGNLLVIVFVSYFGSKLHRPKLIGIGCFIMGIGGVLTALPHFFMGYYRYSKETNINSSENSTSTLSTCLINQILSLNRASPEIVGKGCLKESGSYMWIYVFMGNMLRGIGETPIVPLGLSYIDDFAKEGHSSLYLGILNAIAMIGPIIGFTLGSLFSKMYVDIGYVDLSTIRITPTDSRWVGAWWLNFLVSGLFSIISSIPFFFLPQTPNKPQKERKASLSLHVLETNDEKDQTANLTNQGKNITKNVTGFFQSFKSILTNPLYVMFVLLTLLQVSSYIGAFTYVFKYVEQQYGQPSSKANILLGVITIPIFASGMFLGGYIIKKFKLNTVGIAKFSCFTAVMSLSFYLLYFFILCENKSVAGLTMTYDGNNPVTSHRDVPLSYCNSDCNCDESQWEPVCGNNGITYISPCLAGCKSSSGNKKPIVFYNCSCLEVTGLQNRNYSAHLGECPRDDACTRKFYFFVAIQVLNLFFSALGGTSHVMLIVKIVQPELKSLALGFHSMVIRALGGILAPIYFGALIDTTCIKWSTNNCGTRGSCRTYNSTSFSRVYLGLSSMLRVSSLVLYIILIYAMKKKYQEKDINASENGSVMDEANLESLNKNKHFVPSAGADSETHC
# [9] = test system: HEK 293 cells; experiment: toxicity for HEK 293 cells with and without OATP1B1/B3 overexpression; conditions: not shown
# [10] = stability on storage and in solution; format: physicochemical
# [11] = molecular target: T2, Oatp1b2; remark: listed apart in the source
# [12] = molecular target: T3, OATP1B1; remark: listed apart in the source
# Target sequence in this assay (Q9Y6L6 whole entry): as above
# [13] = molecular target: T3, OATP1B1; format: cell-based
# Target sequence in this assay (Q9Y6L6 whole entry, looked up): as the sequence (Q9Y6L6 whole entry) above
# [14] = molecular target: T1, OATP1B3; conditions: Gui et al. 2010; cited from earlier work
# [15] = molecular target: rat hepatocyte channel Oatp1b2 (rat) (UniProt Q9QZX8); experiment: cell-based or functional assay
molecule,measurement,setting,value
"O=C1OC(c2ccc(O)c(S(=O)(=O)O)c2)(c2ccc(O)c(S(=O)(=O)O)c2)c2c(Br)c(Br)c(Br)c(Br)c21 [BSP, bromosulfophthalein]","inherent toxicity (morphology, growth, mitochondrial dehydrogenase activity of hepatocytes)",[1],highly toxic
CC(C)[C@@H]1NC(=O)[C@@H]2CCCN2C(=O)[C@@H](CCO)NC(=O)C(Cc2ccc(O)cc2)NC(=O)C(Cc2ccc(O)cc2)N=CC(Cc2ccc(O)cc2)NC(=O)[C@@H]2C[C@H](C)CN2C1=O (stereo partly drawn) [Ncp-M1] (cyclo([X1][ξY][d(hSer)]PV[Pro(4S-Me)])),Ki,[2],0.01063 nM
same,"inherent toxicity (morphology, growth, mitochondrial dehydrogenase activity of hepatocytes)",[3],no apparent inherent toxicity
same,toxicity for primary rat hepatocytes,[3],non-toxic
same,hepatocyte uptake of microcystin and nodularin,[4],blocks
same,Ki,[5],350 nM
same,solubility in physiological saline,[6],high solubility
same,"interference with intracellular steps of microcystin action (protein phosphatase inhibition, CaM-KII activation, ROS production, actin rearrangement)",[7],did not interfere
same,Ki,[8],1500 nM
same,toxicity for HEK 293 cells,[9],non-toxic
same,stability in solution,"[10]; in solution, in particular acidic solutions",degrade in solution
same,stability on storage,[10]; stored at -70°C,non-stable
"CC(C)[C@@H]1NC(=O)[C@@H]2CCCN2C(=O)[C@H](CO)NC(=O)[C@H](Cc2ccc(O)cc2)NC(=O)[C@H](Cc2ccc(O)cc2)NC(=O)[C@H](Cc2ccc(O)cc2)NC(=O)[C@@H]2CCCN2C1=O [cyclic peptide of Seq. ID. No. 1, Tyr1-Tyr2-Ser-Pro-Val-Pro-Tyr7] (cyclo(PVPYYYS))",inhibition of nodularin uptake / nodularin-induced apoptosis,[2],inhibited completely
same,potency compared with another peptide,[2],lower potency than Ncp-M1
same,preference for inhibition of OATP1B3,[2],even higher OATP1 B3 preference
same,"inherent toxicity (morphology, growth, mitochondrial dehydrogenase activity of hepatocytes)",[3],no apparent inherent toxicity
same,toxicity for primary rat hepatocytes,[3],non-toxic
same,solubility in physiological saline,[6],high solubility
same,inhibition of nodularin uptake / nodularin-induced apoptosis,[11],inhibited completely
same,potency compared with another peptide,[11],lower potency than Ncp-M1
same,inhibition of nodularin uptake / nodularin-induced apoptosis,[12],inhibited completely
same,potency compared with another peptide,[12],lower potency than Ncp-M1
same,toxicity for HEK 293 cells,[9],non-toxic
C/C=C1/C(=O)N[C@@H](C(=O)O)[C@H](C)C(=O)N[C@@H](CCCNC(=N)N)C(=O)N[C@@H](/C=C/C(C)=C/[C@H](C)[C@H](Cc2ccccc2)OC)[C@H](C)C(=O)N[C@@H](C(=O)O)CCC(=O)N1C [nodularin],Km,[13],32 nM
C[C@H]1[C@H](C)CC[C@]2(C(=O)O)CC[C@]3(C)C(=CC[C@@H]4[C@@]5(C)CC[C@H](O)C(C)(C)[C@@H]5CC[C@]43C)[C@H]12 [ursolic acid],selectivity for OATP1B3 compared to OATP1B1,[14],ten times
"YYSPVPY [linear version of the same peptide, Tyr-Tyr-Ser-Pro-Val-Pro-Tyr]",potency compared with another peptide,[2],considerably less potent
microcystin-LR (peptide),"apparent KM for uptake, deduced from apoptosis of primary rat hepatocytes",[15],0.00027 nM
